≈ marks a conversion by molar mass, not a printed value.
What was measured:
[1] = target: Mitogen-activated protein kinase 14 (Homo sapiens, UniProt Q16539); experiment: Inhibition of p38-alpha by HTRF kinase assay
[2] = target: T1, Tyrosine-protein kinase JAK3 (Homo sapiens, UniProt P52333); experiment: Inhibition of Jak3 by HTRF kinase assay
T1 sequence (P52333 whole entry): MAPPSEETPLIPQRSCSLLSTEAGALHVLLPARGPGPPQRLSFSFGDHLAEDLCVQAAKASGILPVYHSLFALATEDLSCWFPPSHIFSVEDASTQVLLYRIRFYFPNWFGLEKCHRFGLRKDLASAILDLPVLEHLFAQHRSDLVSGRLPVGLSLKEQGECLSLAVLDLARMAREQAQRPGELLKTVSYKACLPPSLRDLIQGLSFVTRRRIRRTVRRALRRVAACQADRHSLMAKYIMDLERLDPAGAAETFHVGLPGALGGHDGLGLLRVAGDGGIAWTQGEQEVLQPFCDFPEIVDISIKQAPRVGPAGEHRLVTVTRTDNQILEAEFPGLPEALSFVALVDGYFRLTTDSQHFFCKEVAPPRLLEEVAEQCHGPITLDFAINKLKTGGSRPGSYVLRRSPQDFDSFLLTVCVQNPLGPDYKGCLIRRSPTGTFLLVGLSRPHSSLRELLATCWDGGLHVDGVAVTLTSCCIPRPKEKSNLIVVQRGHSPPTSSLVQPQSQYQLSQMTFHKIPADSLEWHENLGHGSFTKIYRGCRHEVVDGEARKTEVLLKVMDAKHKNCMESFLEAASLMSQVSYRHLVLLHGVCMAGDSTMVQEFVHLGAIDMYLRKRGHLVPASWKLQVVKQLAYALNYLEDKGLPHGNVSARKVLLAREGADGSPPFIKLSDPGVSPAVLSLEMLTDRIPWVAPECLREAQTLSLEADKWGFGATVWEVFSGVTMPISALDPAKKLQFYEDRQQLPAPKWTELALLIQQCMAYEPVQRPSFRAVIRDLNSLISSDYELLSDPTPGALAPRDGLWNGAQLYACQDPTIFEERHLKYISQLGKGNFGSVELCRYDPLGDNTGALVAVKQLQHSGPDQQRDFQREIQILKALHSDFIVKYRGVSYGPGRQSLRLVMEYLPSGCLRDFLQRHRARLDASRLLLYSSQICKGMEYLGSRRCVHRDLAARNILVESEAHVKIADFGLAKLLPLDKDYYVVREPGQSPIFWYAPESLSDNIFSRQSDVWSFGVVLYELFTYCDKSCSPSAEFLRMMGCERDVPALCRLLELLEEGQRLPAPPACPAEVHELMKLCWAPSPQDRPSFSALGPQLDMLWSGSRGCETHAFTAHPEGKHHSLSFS

[3] = Solubility in fasted state simulated intestinal fluid at pH 6.8; type: physicochemical; settings: read-out: Solubility
[4] = species: Homo sapiens; experiment: Inhibition of anti CD3-induced IL2 production in human whole blood; type: functional
[5] = species: Homo sapiens; experiment: Inhibition of […] TNF alpha production in human whole blood; type: functional
[6] = Protein binding in mouse plasma; type: ADME; settings: read-out: PPB (converted)
[7] = tested on: Mus musculus; experiment: Inhibition of anti CD3-induced IL2 production in BALB/c mouse at 10 mg/kg, po relative to control; type: functional
[8] = tested on: Mus musculus; experiment: Inhibition of anti CD3-induced IL2 production in BALB/c mouse at 30 mg/kg, po relative to control; type: functional
[9] = tested on: Mus musculus; experiment: Inhibition of anti CD3-induced IL2 production in BALB/c mouse at 100 mg/kg, po relative to control; type: functional
[10] = tested on: Mus musculus; experiment: Mean terminal plasma concentration in BALB/c mouse at 11 mg/kg, po after […]; type: ADME, organism-based; set-up: dose 11 mg/kg, route oral
[11] = tested on: Mus musculus; experiment: Unbound plasma concentration in po dosed BALB/c mouse; type: ADME, organism-based
[12] = Clearance in Sprague-Dawley rat at 1 mg/kg, iv; type: ADME, organism-based; set-up: dose 1 mg/kg, route intravenous; settings: in vivo
[13] = AUC (0-infinity) in Sprague-Dawley rat at 5 mg/kg, po; type: ADME, organism-based; set-up: time infinity, dose 5 mg/kg, route oral; settings: plasma
[14] = Cmax in Sprague-Dawley rat at 5 mg/kg, po; type: ADME, organism-based; set-up: dose 5 mg/kg, route oral; settings: in vivo
[15] = Tmax in Sprague-Dawley rat at 5 mg/kg, po; type: ADME, organism-based; set-up: dose 5 mg/kg, route oral; settings: in vivo
[16] = Bioavailability in Sprague-Dawley rat at 5 mg/kg, po; type: ADME, organism-based; settings: in vivo
[17] = target: Proto-oncogene tyrosine-protein kinase Src (Homo sapiens, UniProt P12931); experiment: Inhibition of Src by HTRF kinase assay
[18] = target: Tyrosine-protein kinase SYK (Homo sapiens, UniProt P43405); experiment: Inhibition of Syk by HTRF kinase assay
[19] = target: Non-receptor tyrosine-protein kinase TYK2 (Homo sapiens, UniProt P29597); experiment: Inhibition of Tyk2 by HTRF kinase assay
[20] = target: Tyrosine-protein kinase ITK/TSK (Homo sapiens, UniProt Q08881); experiment: Inhibition of Itk by HTRF kinase assay
[21] = target: Cyclin-dependent kinase 5 (Homo sapiens, UniProt Q00535); experiment: Inhibition of CDK5 by HTRF kinase assay
[22] = target: Ribosomal protein S6 kinase alpha-5 (Homo sapiens, UniProt O75582); experiment: Inhibition of MSK1 by HTRF kinase assay
[23] = target: Serine/threonine-protein kinase PAK 2 (Homo sapiens, UniProt Q13177); experiment: Inhibition of Pak2 by HTRF kinase assay
[24] = target: Mitogen-activated protein kinase 8 (Homo sapiens, UniProt P45983); experiment: Inhibition of JNK1 by HTRF kinase assay
[25] = target: Mitogen-activated protein kinase 9 (Homo sapiens, UniProt P45984); experiment: Inhibition of JNK2 by HTRF kinase assay
[26] = target: Mitogen-activated protein kinase 10 (Homo sapiens, UniProt P53779); experiment: Inhibition of JNK3 by HTRF kinase assay
[27] = target: RAC-alpha serine/threonine-protein kinase (Homo sapiens, UniProt P31749); experiment: Inhibition of PKBalpha by HTRF kinase assay
[28] = target: Tyrosine-protein kinase ZAP-70 (Homo sapiens, UniProt P43403); experiment: Inhibition of Zap70 by HTRF kinase assay
[29] = Volume of distribution in Sprague-Dawley rat at 1 mg/kg, iv; type: ADME, organism-based; set-up: dose 1 mg/kg, route intravenous; settings: in vivo, read-out: Vss
[30] = Half life in Sprague-Dawley rat at 1 mg/kg, iv; type: ADME, organism-based; set-up: dose 1 mg/kg, route intravenous; settings: in vivo
[31] = tested on: T-cell; experiment: Inhibition of human T cell proliferation by mixed lymphocyte reaction
[32] = tested on: T-cell; experiment: Inhibition of anti CD3/CD28-induced IL2 secretion in human T cells; type: functional, cell-based
[33] = target: Tyrosine-protein kinase Lck (Homo sapiens, UniProt P06239)
Description: Inhibition of Lck by HTRF kinase assay

[34] = target: Tyrosine-protein kinase BTK (Homo sapiens, UniProt Q06187); experiment: Inhibition of Btk by HTRF kinase assay
[35] = target: Vascular endothelial growth factor receptor 2 (Homo sapiens, UniProt P35968); experiment: Inhibition of KDR by HTRF kinase assay
[36] = tested on: Mus musculus; experiment: Mean terminal plasma concentration in BALB/c mouse at 22 mg/kg, po after […]; type: ADME, organism-based; set-up: dose 22 mg/kg, route oral
[37] = Clearance in Sprague-Dawley rat at 5 mg/kg, iv; type: ADME, organism-based; set-up: dose 5 mg/kg, route intravenous; settings: in vivo
[38] = AUC (0-infinity) in Sprague-Dawley rat at 2 mg/kg, po; type: ADME, organism-based; set-up: time infinity, dose 2 mg/kg, route oral; settings: plasma
[39] = target: cAMP-dependent protein kinase catalytic subunit beta (Homo sapiens, UniProt P22694); experiment: Inhibition of PKAbeta by HTRF kinase assay
[40] = Volume of distribution in Sprague-Dawley rat at 5 mg/kg, iv; type: ADME, organism-based; set-up: dose 5 mg/kg, route intravenous; settings: in vivo, read-out: Vss
[41] = Half life in Sprague-Dawley rat at 5 mg/kg, iv; type: ADME, organism-based; set-up: dose 5 mg/kg, route intravenous; settings: in vivo
[42] = Cmax in Sprague-Dawley rat at 2 mg/kg, po; type: ADME, organism-based; set-up: dose 2 mg/kg, route oral; settings: in vivo
[43] = Tmax in Sprague-Dawley rat at 2 mg/kg, po; type: ADME, organism-based; set-up: dose 2 mg/kg, route oral; settings: in vivo
[44] = Bioavailability in Sprague-Dawley rat at 2 mg/kg, po; type: ADME, organism-based; settings: in vivo

Chain of Serine/threonine-protein kinase PAK 2 (Q13177 whole entry): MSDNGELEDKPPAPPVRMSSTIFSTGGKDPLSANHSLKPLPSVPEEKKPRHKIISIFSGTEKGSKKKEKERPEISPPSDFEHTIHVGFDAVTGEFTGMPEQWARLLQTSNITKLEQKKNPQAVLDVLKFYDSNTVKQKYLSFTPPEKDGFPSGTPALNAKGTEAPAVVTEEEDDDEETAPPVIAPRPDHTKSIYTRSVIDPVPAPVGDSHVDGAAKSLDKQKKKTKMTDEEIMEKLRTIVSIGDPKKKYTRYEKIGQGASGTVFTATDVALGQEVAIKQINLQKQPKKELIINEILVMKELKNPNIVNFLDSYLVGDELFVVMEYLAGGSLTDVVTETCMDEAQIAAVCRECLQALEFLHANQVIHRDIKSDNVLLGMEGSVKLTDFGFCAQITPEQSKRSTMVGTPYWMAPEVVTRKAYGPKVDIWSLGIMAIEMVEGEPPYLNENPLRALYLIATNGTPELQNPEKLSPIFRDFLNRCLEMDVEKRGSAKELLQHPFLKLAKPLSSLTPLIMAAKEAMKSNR
Chain of Ribosomal protein S6 kinase alpha-5 (O75582 whole entry): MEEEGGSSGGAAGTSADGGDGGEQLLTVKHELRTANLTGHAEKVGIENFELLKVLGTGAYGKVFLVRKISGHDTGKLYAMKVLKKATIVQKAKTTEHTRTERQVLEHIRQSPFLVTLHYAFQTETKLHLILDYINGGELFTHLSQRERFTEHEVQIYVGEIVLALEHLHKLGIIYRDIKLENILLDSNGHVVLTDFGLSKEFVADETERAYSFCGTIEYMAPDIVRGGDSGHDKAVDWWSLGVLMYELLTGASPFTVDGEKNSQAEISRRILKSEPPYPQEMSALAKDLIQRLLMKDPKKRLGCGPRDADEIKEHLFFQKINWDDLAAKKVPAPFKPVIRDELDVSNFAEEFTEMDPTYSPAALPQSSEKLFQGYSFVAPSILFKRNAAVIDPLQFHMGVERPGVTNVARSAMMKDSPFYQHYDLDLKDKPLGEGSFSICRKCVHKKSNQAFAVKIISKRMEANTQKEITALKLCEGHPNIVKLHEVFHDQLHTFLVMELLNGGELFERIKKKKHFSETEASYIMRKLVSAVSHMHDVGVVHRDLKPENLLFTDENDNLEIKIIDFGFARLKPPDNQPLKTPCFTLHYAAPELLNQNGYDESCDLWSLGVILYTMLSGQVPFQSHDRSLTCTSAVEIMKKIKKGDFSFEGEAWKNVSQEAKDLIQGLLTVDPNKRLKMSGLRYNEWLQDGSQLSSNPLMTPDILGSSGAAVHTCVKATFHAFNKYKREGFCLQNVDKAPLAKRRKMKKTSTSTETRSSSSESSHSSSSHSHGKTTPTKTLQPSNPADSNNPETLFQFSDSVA
Chain of Non-receptor tyrosine-protein kinase TYK2 (P29597 whole entry): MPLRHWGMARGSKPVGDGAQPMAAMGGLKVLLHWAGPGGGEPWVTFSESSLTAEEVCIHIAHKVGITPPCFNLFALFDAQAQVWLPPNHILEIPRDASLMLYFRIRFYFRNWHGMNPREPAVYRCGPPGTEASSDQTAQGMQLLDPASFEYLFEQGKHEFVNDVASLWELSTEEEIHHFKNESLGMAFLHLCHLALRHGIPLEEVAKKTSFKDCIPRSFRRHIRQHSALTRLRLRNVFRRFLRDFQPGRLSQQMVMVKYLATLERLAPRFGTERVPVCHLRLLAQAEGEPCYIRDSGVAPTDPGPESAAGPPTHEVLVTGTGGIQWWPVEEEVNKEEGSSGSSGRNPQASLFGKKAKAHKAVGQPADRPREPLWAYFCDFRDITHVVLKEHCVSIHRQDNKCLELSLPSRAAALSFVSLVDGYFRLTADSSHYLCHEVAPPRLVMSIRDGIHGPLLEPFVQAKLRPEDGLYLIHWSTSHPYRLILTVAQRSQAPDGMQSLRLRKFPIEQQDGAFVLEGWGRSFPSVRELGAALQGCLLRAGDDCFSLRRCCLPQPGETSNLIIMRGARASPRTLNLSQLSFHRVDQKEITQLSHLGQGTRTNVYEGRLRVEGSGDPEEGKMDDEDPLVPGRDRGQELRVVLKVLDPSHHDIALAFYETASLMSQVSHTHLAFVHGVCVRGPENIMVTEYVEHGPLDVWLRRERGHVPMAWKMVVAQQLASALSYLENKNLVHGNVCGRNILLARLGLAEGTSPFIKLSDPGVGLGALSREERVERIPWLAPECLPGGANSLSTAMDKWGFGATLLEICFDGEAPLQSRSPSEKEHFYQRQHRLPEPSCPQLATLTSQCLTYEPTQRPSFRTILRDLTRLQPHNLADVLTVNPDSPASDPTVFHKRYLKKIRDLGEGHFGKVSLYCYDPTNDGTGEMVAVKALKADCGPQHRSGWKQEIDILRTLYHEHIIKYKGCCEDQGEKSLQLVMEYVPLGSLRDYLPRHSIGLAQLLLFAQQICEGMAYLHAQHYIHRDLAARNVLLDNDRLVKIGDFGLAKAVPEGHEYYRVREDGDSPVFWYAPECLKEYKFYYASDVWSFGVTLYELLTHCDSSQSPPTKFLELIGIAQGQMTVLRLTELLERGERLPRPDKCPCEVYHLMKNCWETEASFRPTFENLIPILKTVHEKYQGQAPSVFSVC
Chain of Tyrosine-protein kinase Lck (P06239 whole entry): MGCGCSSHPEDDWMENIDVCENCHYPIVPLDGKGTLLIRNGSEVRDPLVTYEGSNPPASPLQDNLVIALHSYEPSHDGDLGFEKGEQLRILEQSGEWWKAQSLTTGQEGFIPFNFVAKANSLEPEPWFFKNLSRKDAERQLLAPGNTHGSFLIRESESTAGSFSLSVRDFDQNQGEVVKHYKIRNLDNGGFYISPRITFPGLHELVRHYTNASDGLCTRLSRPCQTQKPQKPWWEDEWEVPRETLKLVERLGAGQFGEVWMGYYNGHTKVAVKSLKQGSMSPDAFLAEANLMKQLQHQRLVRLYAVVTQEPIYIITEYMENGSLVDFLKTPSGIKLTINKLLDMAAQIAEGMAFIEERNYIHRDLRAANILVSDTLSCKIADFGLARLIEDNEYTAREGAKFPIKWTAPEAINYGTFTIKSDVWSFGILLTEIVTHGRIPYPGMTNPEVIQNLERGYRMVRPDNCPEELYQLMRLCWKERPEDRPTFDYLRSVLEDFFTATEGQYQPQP
Chain of Tyrosine-protein kinase ZAP-70 (P43403 whole entry): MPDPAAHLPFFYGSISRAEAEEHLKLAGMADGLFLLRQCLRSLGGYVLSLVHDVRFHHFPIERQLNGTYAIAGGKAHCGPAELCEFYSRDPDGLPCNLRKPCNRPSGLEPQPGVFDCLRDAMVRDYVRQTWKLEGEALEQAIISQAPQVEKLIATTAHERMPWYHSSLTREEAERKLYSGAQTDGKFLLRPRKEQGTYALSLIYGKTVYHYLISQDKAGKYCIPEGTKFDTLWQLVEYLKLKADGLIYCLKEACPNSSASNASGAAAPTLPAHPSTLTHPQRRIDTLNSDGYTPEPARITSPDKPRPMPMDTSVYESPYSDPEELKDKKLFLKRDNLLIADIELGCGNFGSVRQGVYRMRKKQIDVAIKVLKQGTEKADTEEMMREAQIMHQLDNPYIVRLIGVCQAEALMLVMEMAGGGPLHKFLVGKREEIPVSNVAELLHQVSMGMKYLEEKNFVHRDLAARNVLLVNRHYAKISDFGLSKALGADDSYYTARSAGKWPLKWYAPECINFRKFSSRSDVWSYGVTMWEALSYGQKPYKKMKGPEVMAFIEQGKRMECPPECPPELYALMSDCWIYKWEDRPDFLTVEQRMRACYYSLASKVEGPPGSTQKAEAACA
Chain of Cyclin-dependent kinase 5 (Q00535 whole entry): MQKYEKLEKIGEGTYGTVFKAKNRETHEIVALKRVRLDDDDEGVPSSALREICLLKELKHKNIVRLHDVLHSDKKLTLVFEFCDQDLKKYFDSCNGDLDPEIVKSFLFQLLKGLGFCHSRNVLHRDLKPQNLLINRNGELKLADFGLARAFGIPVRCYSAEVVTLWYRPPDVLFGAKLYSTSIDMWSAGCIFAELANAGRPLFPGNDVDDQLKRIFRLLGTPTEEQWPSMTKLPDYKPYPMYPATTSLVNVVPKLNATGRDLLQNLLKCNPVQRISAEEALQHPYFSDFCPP
Chain of Mitogen-activated protein kinase 14 (Q16539 whole entry): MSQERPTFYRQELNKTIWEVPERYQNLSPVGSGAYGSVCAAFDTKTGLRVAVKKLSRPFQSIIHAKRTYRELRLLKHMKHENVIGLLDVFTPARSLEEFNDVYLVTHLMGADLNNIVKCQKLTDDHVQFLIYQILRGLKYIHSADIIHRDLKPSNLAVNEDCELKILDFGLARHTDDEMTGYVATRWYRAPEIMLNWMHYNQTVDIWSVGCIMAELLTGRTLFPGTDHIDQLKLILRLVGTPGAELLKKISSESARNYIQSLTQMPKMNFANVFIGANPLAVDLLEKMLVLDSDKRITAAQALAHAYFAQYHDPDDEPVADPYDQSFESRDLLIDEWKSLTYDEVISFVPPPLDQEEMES
Chain of Mitogen-activated protein kinase 10 (P53779 whole entry): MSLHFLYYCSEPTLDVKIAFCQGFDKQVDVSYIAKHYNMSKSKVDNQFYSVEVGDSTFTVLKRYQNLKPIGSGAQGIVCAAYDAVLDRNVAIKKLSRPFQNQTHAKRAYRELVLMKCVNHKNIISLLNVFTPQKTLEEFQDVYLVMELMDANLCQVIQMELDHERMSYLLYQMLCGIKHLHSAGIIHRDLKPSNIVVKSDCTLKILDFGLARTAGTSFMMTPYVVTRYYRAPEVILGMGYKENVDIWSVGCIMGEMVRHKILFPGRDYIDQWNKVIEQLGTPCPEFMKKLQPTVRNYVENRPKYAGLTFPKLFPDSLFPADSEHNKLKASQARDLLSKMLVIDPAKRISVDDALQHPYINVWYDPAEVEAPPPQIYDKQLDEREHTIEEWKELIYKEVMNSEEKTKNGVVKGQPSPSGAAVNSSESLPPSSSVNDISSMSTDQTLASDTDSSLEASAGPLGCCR

Structure (SMILES) | IC50 [1] | IC50 [2] | Activity [4] | Activity [5] | inhibition in vivo at 10 mg/kg [7] | inhibition in vivo at 30 mg/kg [8] | inhibition in vivo at 100 mg/kg [9] | IC50 [17] | IC50 [18] | IC50 [19] | IC50 [20] | IC50 [21] | IC50 [22] | IC50 [23] | IC50 [24] | IC50 [25] | IC50 [26] | IC50 [27] | IC50 [28] | IC50 [31] | also measured
Cc1ccc(C(=O)Nc2cccc(C(F)(F)F)c2)cc1-c1ccc2nc(NCCN3CCOCC3)ncc2c1 | 3 nM | 72 nM | 0.272 µM | >2.5 µM | 49% | 84% | 91% | 2 nM | 292 nM | 1830 nM | > 25000 nM | > 25000 nM | > 25000 nM | > 25000 nM | 389 nM | 173 nM | 145 nM | > 25000 nM | > 25000 nM | 30 nM | solubility [3]: 159 µg/mL (≈ 297 µM); fraction unbound [6]: 0.029; EC50 [10]: 630 nM; EC50 [11]: 18 nM; clearance [12]: 48 mL/min/kg; AUC(0-inf) [13]: 668 ng·h/mL; Cmax [14]: 128 ng/mL; Tmax [15]: 3 h; bioavailability [16]: 38%; Vd [29]: 5.04 L/kg; half-life [30]: 1.8 h; IC50 [32]: 21 nM; IC50 [33]: 0.2 nM
CNc1ncc2cc(-c3cc(C(=O)Nc4cc(C(F)(F)F)ccc4OC4CCN(C)CC4)ccc3C)ccc2n1 | 9 nM | 868 nM | 0.113 µM | >2.5 µM | -3% | 72% | 96% | 17 nM | 1110 nM | 2730 nM | > 5000 nM | > 25000 nM | > 25000 nM | > 25000 nM | > 10000 nM | > 25000 nM | > 5000 nM | > 25000 nM | > 25000 nM | 243 nM | IC50 [34]: 3330 nM; IC50 [35]: 17 nM; EC50 [36]: 1400 nM; clearance [37]: 13.9 mL/min/kg; AUC(0-inf) [38]: 1370 ng·h/mL; IC50 [39]: > 25000 nM; Vd [40]: 7.63 L/kg; half-life [41]: 6.5 h; Cmax [42]: 121 ng/mL; Tmax [43]: 6 h; bioavailability [44]: 55%; IC50 [32]: 36 nM; IC50 [33]: 0.5 nM
